Experimental data published in ChEMBL document CHEMBL1122948, “3,4-Diphenyl-1H-pyrazole-1-propanamine antidepressants” (J Med Chem, 1985).

How the values were obtained:
Type in all cases: functional
[1] = test system: Mus musculus; assay: Prevention of reserpine-induced ptosis in the mouse after peroral administration
[2] = species: Rattus norvegicus; assay: In vitro inhibitory activity against [3H]5-HT uptake into crude synaptosomes from whole rat brain.
[3] = species: Rattus norvegicus; assay: In vitro inhibitory activity against [3H]-5-HT uptake into crude synaptosomes from whole rat brain.
[4] = test system: Mus musculus; assay: Effect on tetrabenazine-induced suppression of locomotor activity in the mouse after peroral administration

- IC50 [2]: 0.24 µM
- IC50 [3]: 3.1 µM
Structure (SMILES): CN(C)CCCN1c2ccccc2CCc2ccccc21 [IMIPRAMINE]
- MED [1]: 4 (mg of base) kg-1
- MED [4]: 4 (mg of base) kg-1
